Data as given in patent US12448362B2, “Fluorine-containing pyrimidine compound and fluorine-containing pyrimidinone compound” (UNIMATEC CO., LTD., priority 2020, dated 2025).

Test system: cucumber powdery mildew
Test: Evaluation test for cucumber powdery mildew (cucumber leaf disc, lesion area after 14 days)
Type: in vivo
Conditions: 500 ppm in acetone; cucumber leaf disc sprayed with spore suspension; 25° C., 12 hours illumination; lesion area after 14 days vs untreated section
Method: Each of the fluorine-containing pyrimidine compounds prepared in Examples 32 and 36 was dissolved in acetone and diluted to a concentration of 500 ppm. Subsequently, a cucumber leaf disc (20 mm in diameter) was put into the diluted acetone solution and completely wetted, and then the cucumber leaf disc was placed so that the back surface of the cucumber leaf disc was in contact with a plain agar medium that had been prepared separately, and air-dried. After air-drying, a spore suspension of the cucumber powdery mildew was uniformly sprayed on the cucumber leaf disc and air-dried. The cucumber leaf disc was then left in a thermostat (25° C., 12 hours illumination), and after 14 days, the area of lesions was examined to calculate the control value. Note that the control value was calculated according to the following formula. In the following formula, “untreated” means that a cucumber leaf disc was wetted with only acetone as a test solution, and “untreated section” means a section of the wetted cucumber leaf disc. [formula]

| SMILES | Control value |
| --- | --- |
| Cc1ccc(Nc2nc(-c3cccnc3)nc(Cl)c2C(F)(F)F)cc1 [Example 36, 6-chloro-N-(4-methylphenyl)-2-(3-pyridyl)-5-(trifluoromethyl)-4-pyrimidinamine] | 67.9 |
| Cc1ccc(Nc2nc(-c3ccccn3)nc(Cl)c2C(F)(F)F)cc1 [Example 32, 6-chloro-N-(4-methylphenyl)-2-(2-pyridyl)-5-(trifluoromethyl)-4-pyrimidinamine] | 57.1 |
